According to patent US20230381257A1, “HERBAL COMPOSITION JCM-16021 AS TREATMENT FOR INFLAMMATORY BOWEL DISEASE” (Hong Kong Baptist University, priority 2022, published 2023):

Tests used:
Assay type in all cases: in vivo, Rag 1−/− immunodeficient mice
[1] = test system: ulcerative colitis induced by CD4+ naive T cell transfer; test: CD4+ naive T cell transfer-induced ulcerative colitis model: fecal occult blood, pathological index, H&E/PAS histology
Excerpt: Day one of the experiment is defined as i) adoptive transfer of […] CD4^+ T cells to Rag 1^−/− mice or ii) first day of DSS administration. JCM-16021 was orally administered to mice (weighing approximately 22-24 grams) at doses of 1.0 and 2.0 g/kg. Body weight and fecal bleeding were monitored every three days. Mice were euthanized and serum, colon tissue, spleen, mesenteric lymph nodes and feces were collected for further analysis.
Fecal occult blood test kit was purchased from Nanjing Jiancheng Bioengineering Institute and performed according to the kit instructions.
Histological staining, PAS staining, immunohistochemical staining and immunofluorescent staining: • At the end of the experiment, mouse colon tissue was preserved using 4% paraformaldehyde fixed at 4° C. for 2 hours and embedded in paraffin. After dewaxing, mouse colon tissue sections were washed with PBS and blocked with 3% H2O2. Tissue sections were then blocked with blocking solution (10% horse serum, 0.1% bovine serum albumin, 0.2% gelatin) at room temperature for 1 hour to block non-specific sites. […]
Histological grading of colitis were analyzed based on inflammatory features, extent, regeneration, crypt damage and percentage in hematoxylin-eosin and periodic acid-Schiff stained colon sections. Colitis scores will be determined by two independent researchers blinded to animal treatment.
CD4^+ naive T cells were isolated and purified from the spleens of wild-type C57BL/6J mice using a naive CD4+ T cell isolation kit (#130-104-453, Miltenyi Biotech) according to the manufacturer's recommendations. The isolated CD4^+ naive T cells were incubated with antibodies against CD4 (#100406, BioLegend), CD25 (#17025182, eBiosciences) and CD45RB (#103314, BioLegend) and purity was analyzed by BD Fortessa flow cytometer (BD Biosciences). […] Clinical symptoms of colitis including fecal occult blood, loose stool/diarrhea, rough/hunched posture and weight loss were monitored every three days thereafter. […]

Tnf-α and Mcp-1 mRNA = test: qRT-PCR of colon tissue, T cell transfer colitis model
Protocol: Total RNA was extracted from tissues using Trizol reagent (Invitrogen) and reverse transcribed into cDNA using cDNA synthesis kit (Bio-Rad Laboratories). The cDNA was diluted 50-fold as a template for qRT-PCR. According to the kit instructions mRNA expression levels were detected using SYBR Green fluorescent probe. Primers used for qRT-PCR are: Tnf-α, forward primer 5′-[…]-3′ (SEQ ID NO:1), reverse primer 5′-[…]-3′ (SEQ ID NO:2); Mcp-1, forward primer 5′-[…]-3′ (SEQ ID NO:3), reverse primer 5′-[…]-3′ (SEQ ID NO:4); 18S rRNA, forward primer 5′-[…]-3′ (SEQ ID NO:5), reverse primer 5′-[…]-3′ (SEQ ID NO:6).
CD4^+ naive T cells were isolated and purified from the spleens of wild-type C57BL/6J mice using a naive CD4+ T cell isolation kit (#130-104-453, Miltenyi Biotech) according to the manufacturer's recommendations. The isolated CD4^+ naive T cells were incubated with antibodies against CD4 (#100406, BioLegend), CD25 (#17025182, eBiosciences) and CD45RB (#103314, BioLegend) and purity was analyzed by BD Fortessa flow cytometer (BD Biosciences). 4×10^5 CD4^+ naive T cells were intraperitoneally injected into Rag 1^−/− immunodeficient mice. Clinical symptoms of colitis including fecal occult blood, loose stool/diarrhea, rough/hunched posture and weight loss were monitored every three days thereafter. […]

CD4+Foxp3+ Treg cells = test: Flow cytometry of regulatory T cells in colon lamina propria lymphocytes, T cell transfer colitis model; details: JCM-16021 2.0 g/kg; IFLX 5 mg/kg; FACS, FIG. 4B
Protocol: After dissecting and isolating the colon from mice, it was washed four times in ice-cold PBS (137 mM NaCl, 2.7 mM KCl, 10 mM Na2HPO4, 1.8 mM KH2PO4, pH 7.4) and then cut into approximately 1 cm long fragments. Intestinal epithelial cells and lamina propria were separated by vigorous shaking in HBSS buffer containing 2 mM EDTA at 37° C. for 30 minutes. Intestinal epithelial cells were collected by centrifugation at 1,000 rpm at 4° C. The remaining colon tissue was incubated with digestion buffer (DMEM medium, 5% fetal calf serum, 1 mg/mL collagenase IV and DNAse I) at 37° C. with shaking for 40 minutes to separate colon lamina propria lymphocytes. The digested colon tissue cell suspension was filtered through a 70 micron cell filter and centrifuged. […]
Colon lamina propria lymphocytes were diluted to 1×10^5 cells/mL and subjected to intracellular staining after fixation and permeabilization. Cells were stained with a primary antibody diluted 1:100 at 4° C. in the dark for 30 minutes and analyzed by flow cytometry using antibodies against CD3 (APC, BD Biosciences), CD4 (FITC, BD Biosciences), and Foxp3 (PE, BD Biosciences). Analysis was performed using a BD LSRFortessa™ flow cytometer (BD Biosciences) and data obtained was analyzed using FlowJo software. […]

infliximab [IFLX]
fecal occult blood ([1]; JCM-16021 1.0 and 2.0 g/kg oral twice daily for three weeks, IFLX 5 mg/kg once weekly, FIG. 1C): did not exhibit similar activity
ulcerative colitis pathological index ([1]; JCM-16021 1.0 and 2.0 g/kg oral twice daily for three weeks, IFLX 5 mg/kg once weekly, FIG. 1D): did not exhibit similar activity
overall therapeutic efficacy (comparison of doses and with IFLX) ([1]; JCM-16021 2.0 g/kg vs 1.0 g/kg, infliximab 5 mg/kg under the same experimental conditions): less effective than JCM-16021
expression level of Tnf-α mRNA in colon tissue (Tnf-α and Mcp-1 mRNA; FIG. 2B): significantly reduced
expression level of Mcp-1 mRNA in colon tissue (Tnf-α and Mcp-1 mRNA; FIG. 2C): significantly reduced
ratio of CD4+Foxp3+ Treg cells in isolated LPMC (CD4+Foxp3+ Treg cells): similar
